# Results from patent US20240174631A1, “COMPOUNDS, COMPOSITIONS, AND METHODS FOR MODULATING FGF ACTIVITY” (Recovery Therapeutics, Inc., priority 2021, published 2024).
# Legend:
# FGFR1 = FGFR1 (Homo sapiens, UniProt P11362); experiment: Phosphorylation of FGFR1 in cells expressing FGFR1 in the presence of submaximal FGF-2; type: cell-based; details: increasing concentrations, submaximal concentration of FGF-2; FIG. 2
# Method: Cells expressing FGFR1 were exposed to increasing concentrations of Compound 2 in the presence of a submaximal concentration of FGF-2. Cells were then lysed, and the relative phosphorylation of FGFR1 was assessed using antibodies to non-phosphorylated and phosphorylated FGFR1. The results are shown in FIG. 2, which is a graph showing the phosphorylation of FGFR1 in the presence of increasing concentrations of Compound 2.
# [1] = system: rodent model of stroke recovery (MCAO); experiment: Stroke recovery in vivo after middle cerebral artery occlusion (MCAO): limb placing and body swing tests; details: rat MCAO; 10 mg/kg i.v. on Day 1, 2 and 3 after MCAO; vs vehicle, p<0.001; up to Day 21
# Method: Compound 2 (2-(1-benzhydrylpiperidin-4-yl)-N,N-diethyl-1,2,3,4-tetrahydroisoquinolin-6-amine) was tested for its effectiveness in a rodent model of stroke recovery. Twenty male Sprague Dawley Rats (Charles River Laboratories) each weighing 300-400 g were used in this experiment. First, anesthesia was induced in an induction chamber with 2-3% isoflurane in N2O:O2 (2:1) and maintained with 1-1.5% isoflurane via face mask. Adequate depth of anesthesia was assessed by lack of withdrawal to hindlimb pinch and loss of eyeblink reflex. Once anesthetized, animals received cefazolin sodium (40 mg/kg, i.p.) and buprenorphine SR (0.9-1 mg/kg, s.c.). Cefazolin was used as a prophylactic antibiotic. A veterinary ophthalmic ointment (Sodium Chloride hypertonicity ophthalmic ointment (Muro 128 Sterile Ophthalmic 5% Ointment)) was applied to the eyes. […]
# Behavioral evaluations of sensorimotor function were done by investigators blinded to treatment assignment. […] For the forelimb-placing test, the examiner held the rat close to a tabletop and scored the rat's ability to place the forelimb on the tabletop in response to whisker, visual, tactile, or proprioceptive stimulation. Similarly, for the hindlimb placing test, the examiner assessed the rat's ability to place the hindlimb on the tabletop in response to tactile and proprioceptive stimulation. […]
# Chain of FGFR1 (P11362 22-822): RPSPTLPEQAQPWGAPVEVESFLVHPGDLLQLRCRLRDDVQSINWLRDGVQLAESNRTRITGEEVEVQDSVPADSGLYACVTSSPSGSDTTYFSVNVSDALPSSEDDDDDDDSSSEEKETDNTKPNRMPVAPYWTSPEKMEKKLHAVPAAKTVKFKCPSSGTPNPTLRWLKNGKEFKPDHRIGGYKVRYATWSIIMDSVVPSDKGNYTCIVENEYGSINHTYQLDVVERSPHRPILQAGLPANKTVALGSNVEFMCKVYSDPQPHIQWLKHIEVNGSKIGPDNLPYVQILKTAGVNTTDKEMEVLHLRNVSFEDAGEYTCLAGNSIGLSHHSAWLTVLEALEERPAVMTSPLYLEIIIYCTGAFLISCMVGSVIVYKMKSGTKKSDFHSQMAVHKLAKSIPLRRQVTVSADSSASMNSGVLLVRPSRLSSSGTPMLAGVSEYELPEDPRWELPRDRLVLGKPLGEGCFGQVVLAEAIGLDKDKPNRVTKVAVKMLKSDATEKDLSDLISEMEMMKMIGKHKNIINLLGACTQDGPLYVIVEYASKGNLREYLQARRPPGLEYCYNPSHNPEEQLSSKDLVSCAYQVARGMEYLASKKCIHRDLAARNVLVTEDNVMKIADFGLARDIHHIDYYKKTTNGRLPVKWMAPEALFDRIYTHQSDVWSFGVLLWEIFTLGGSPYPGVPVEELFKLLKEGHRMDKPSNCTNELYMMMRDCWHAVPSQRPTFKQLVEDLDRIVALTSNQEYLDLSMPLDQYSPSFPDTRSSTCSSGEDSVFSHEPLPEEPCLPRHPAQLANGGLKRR
# Chain of FGFR1 (P09038 143-288 partner): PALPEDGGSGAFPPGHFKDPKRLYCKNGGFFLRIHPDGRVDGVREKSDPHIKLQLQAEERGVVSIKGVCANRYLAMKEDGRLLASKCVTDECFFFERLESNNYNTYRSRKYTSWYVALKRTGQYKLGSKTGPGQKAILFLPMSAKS
structure (smiles),measurement,setting,value
"CCN(CC)c1ccc2c(c1)CCN(C1CCN(C(c3ccccc3)c3ccccc3)CC1)C2 [Compound 2, 2-(1-benzhydrylpiperidin-4-yl)-N,N-diethyl-1,2,3,4-tetrahydroisoquinolin-6-amine]",phosphorylation of FGFR1,FGFR1,augmented the effects of FGF-2
same,"sensorimotor recovery (forelimb placing, hindlimb placing and body swing tests)",[1],clear and significant augmentation of sensorimotor recovery
